From paper PMC10516900 (Communications Biology, 2023)
“And” between values parts separate entries of the source, which are not always exact repeats. Identical values can stand only once.

Columns and labels:
cUSP47CD = cUSP47CD (Caenorhabditis elegans, UniProt Q22240); assay: Ub-AMC enzymatic inhibition assay, cUSP47CD; type: biochemical; parameters: Residual enzymatic activity, cUSP47CD_IC50(p50429): unit not given here
Protocol: (§1) Enzymes and substrates were diluted in the reaction buffer (20 mM HEPES, pH 7.4, 150 mM NaCl, and 5 mM DTT) to a concentration of 5 μM for the substrate and 0.5 μM for the enzymes. At the indicated time points following the reaction initiation, 10 μL reaction aliquots were taken and the reaction was stopped by adding SDS sampling buffer and analyzed using SDS-PAGE. Then, the 4–15% gradient gel was stained with Coomassie Brilliant Blue R-250. USP enzymatic activity and inhibition assays were measured at room temperature using the cleavage-sensitive fluorogenic substrate Ub-AMC (Boston Biochem, U-550). The deubiquitination assay was performed following the protocol by Ernst et al.[30]. Briefly, enzyme activity assays were performed in assay buffer in 20 mM HEPES (pH 7.4), 100 mM NaCl, and 5 mM DTT) containing cUSP47CD (in 50 nM), hUSP47CD-UBL12 (in 100 nM) or hUSP7CD (in 100 nM) constructs and serial dilutions of Ub-AMC (final 35 μM). The AMC fluorescence emission was monitored at 460 nm (excitation at 380 nm) for 30–60 min using a SpectraMax M3 plate reader (Molecular Devices). […] The data were fitted using GraphPad Prism 7 (GraphPad Inc.). Fluorescence intensity was recorded every 45 s for 90 min. Data are presented as the mean ± SD (n = 3).

hUSP7CD = biological target: T1, hUSP7CD (Homo sapiens, UniProt Q93009); assay: Ub-AMC enzymatic inhibition assay, hUSP7CD; type: biochemical
T1 construct: Swiss Prot entry: Q93009, residues 208–560; His6 (N); made in house; host or cells: E. coli BL21 (DE3) codon plus RIL
T1 sequence (Q93009 208-560): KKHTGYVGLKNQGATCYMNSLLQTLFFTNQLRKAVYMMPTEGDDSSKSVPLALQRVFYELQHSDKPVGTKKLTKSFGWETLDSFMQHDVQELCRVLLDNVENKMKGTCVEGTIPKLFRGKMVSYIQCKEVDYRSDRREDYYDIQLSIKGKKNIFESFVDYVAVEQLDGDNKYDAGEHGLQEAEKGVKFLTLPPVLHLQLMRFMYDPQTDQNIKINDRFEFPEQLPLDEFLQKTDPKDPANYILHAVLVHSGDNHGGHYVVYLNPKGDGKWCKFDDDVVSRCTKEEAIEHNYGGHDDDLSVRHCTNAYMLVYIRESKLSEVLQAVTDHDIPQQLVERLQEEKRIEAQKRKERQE
Protocol: (§2) Enzymes and substrates were diluted in the reaction buffer (20 mM HEPES, pH 7.4, 150 mM NaCl, and 5 mM DTT) to a concentration of 5 μM for the substrate and 0.5 μM for the enzymes. […] USP enzymatic activity and inhibition assays were measured at room temperature using the cleavage-sensitive fluorogenic substrate Ub-AMC (Boston Biochem, U-550). […] The AMC fluorescence emission was monitored at 460 nm (excitation at 380 nm) for 30–60 min using a SpectraMax M3 plate reader (Molecular Devices). […] The data were fitted using GraphPad Prism 7 (GraphPad Inc.). Fluorescence intensity was recorded every 45 s for 90 min. Data are presented as the mean ± SD (n = 3).

cUSP47CD^R309N = assay: Ub-AMC enzymatic inhibition assay, cUSP47CD^R309N; type: biochemical, Caenorhabditis elegans; conditions: FT671 5 μM, Fig. 5d
Protocol: as §1

cUSP47CD^A416NA417H = assay: Ub-AMC enzymatic inhibition assay, cUSP47CD^A416NA417H; type: biochemical, Caenorhabditis elegans; conditions: FT671 5 μM, Fig. 5d
Protocol: as §1

cUSP47CD^R309NA416NA417H = assay: Ub-AMC enzymatic inhibition assay, cUSP47CD^R309NA416NA417H; type: biochemical, Caenorhabditis elegans; conditions: FT671 5 μM, Fig. 5d, compared with the double mutant
Protocol: as §1

hUSP7CD^N460AH461A = biological target: T2, hUSP7CD^N460AH461A (Homo sapiens, UniProt Q93009, H461A/N460A); assay: Ub-AMC enzymatic inhibition assay, hUSP7CD^N460AH461A; type: biochemical; conditions: FT671 5 μM, Fig. 5d
T2 construct: Swiss Prot entry: Q93009, residues 208–560; His6 (N); made in house; host or cells: E. coli BL21 (DE3) codon plus RIL
T2 sequence (Q93009 208-560 N460A/H461A): as the sequence (Q93009 208-560) above, with N253A, H254A counted along it
Protocol: as §2

USP7 = conditions: cited from earlier work; for potency and specificity for USP7: recently reported USP7 inhibitors
Flag-USP7 = biological target: T3, Flag-USP7 (Homo sapiens, UniProt Q93009); assay: Immunoprecipitation and DUB assay with K48-linked ubiquitin chains, Flag-USP7 from treated HEK293T cells; type: cell-based; conditions: HEK293T cells treated for 2 h, immunoprecipitated Flag-USP7, Fig. 2f
T3 construct: expressed in transfected cells; host or cells: HEK293T
T3 sequence (Q93009 whole entry): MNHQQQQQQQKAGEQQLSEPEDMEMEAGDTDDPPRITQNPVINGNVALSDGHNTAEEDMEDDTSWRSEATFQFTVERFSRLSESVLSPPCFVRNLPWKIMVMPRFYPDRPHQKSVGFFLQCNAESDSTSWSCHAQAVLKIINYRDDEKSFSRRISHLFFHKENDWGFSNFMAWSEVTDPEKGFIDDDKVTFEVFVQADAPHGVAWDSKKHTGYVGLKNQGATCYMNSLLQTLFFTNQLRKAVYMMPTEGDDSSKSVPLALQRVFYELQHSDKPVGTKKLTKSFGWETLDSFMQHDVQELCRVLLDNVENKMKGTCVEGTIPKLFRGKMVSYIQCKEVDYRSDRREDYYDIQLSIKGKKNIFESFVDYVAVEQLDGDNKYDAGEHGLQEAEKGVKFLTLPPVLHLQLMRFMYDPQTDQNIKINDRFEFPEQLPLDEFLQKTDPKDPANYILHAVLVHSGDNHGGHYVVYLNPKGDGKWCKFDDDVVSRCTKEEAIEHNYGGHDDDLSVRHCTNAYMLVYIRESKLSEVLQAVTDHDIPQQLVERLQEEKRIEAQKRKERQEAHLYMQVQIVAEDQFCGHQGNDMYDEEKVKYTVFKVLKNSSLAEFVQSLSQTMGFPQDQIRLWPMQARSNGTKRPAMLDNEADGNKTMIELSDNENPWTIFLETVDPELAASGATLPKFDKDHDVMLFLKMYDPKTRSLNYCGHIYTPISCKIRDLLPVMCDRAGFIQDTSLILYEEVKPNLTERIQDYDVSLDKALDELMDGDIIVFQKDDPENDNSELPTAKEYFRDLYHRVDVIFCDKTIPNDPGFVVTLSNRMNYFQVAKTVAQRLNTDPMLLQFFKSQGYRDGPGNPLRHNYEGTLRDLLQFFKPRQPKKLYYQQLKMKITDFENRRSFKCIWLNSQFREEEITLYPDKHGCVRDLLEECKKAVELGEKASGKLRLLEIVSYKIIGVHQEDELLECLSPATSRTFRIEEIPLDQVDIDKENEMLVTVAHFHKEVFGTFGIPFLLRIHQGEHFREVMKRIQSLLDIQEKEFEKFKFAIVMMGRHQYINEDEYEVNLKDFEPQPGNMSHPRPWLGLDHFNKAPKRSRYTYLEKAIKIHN
Protocol: Fig. 2 Biochemical properties of USP47. a Domain structure of USP47 and the constructs used in this study. b HEK293T cells were transfected with USP Flag-tagged mutants. […] The IC50 values were determined in triplicate and fitted to a four-parameter logistic dose-response curve. Data are expressed as means ± SD.
HEK293T cells transfected with pFlag-CMV-2 vector, pFlag-USP7, or pFlag-USP47 were treated with drugs, as indicated, and lysed by protein lysis buffer (20 mM Tris–Cl, 150 mM NaCl, 1 mM EDTA, 1 mM EGTA, 1% Triton X-100, 2.5 mM sodium pyrophosphate, 50 mM NaF, 5 mM β-glycerophosphate, 1 mM Na3VO4, 1x protease inhibitor, pH 7.5). […] Flag affinity gel was washed 5 times with lysis buffer and the supernatant was removed carefully with a syringe after the last wash step. For elution, Flag agarose was incubated with 3× Flag peptide (Sigma Aldrich) in elution buffer (15 μg of Flag peptide in 50 μl of lysis buffer) for 30 min at 4 °C. The supernatants were collected as immunoprecipitates. […] Samples were analyzed by Western blot and detected with the anti-ubiquitin antibody.

USP47 = conditions: cited from earlier work
HCT116 (p53+/+) cells = assay: Q-PCR relative expression levels, HCT116 (p53+/+); type: cell-based, human
Ub-AMC = Ub-AMC hydrolysis, Michaelis-Menten enzyme kinetics and relative activity of USP constructs; type: biochemical
Protocol: as §1

Sequence of cUSP47CD (Q22240 entry or part of it): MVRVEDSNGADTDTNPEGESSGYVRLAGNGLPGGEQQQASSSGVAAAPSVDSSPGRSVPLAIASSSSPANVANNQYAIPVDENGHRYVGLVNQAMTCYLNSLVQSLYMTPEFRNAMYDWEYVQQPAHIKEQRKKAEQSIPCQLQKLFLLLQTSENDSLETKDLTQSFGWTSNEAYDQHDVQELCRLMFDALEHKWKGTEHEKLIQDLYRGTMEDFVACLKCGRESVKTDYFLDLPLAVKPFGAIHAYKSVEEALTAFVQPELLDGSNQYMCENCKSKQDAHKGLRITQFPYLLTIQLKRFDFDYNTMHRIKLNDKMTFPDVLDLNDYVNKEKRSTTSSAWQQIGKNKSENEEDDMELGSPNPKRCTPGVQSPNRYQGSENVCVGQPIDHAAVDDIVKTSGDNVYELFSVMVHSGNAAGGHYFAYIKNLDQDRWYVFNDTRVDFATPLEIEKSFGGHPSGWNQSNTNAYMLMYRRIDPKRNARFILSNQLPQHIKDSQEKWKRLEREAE

O=C(C[C@@H](C(F)F)n1ccc(F)n1)N1CCC(O)(Cn2cnc3c(cnn3-c3ccc(F)cc3)c2=O)CC1 [FT671]
Enzyme activity cUSP47CD+FT671 relative to cUSP47CD without FT671 (=100) (cUSP47CD; FT671 5 μM, Ub-AMC 35 μM, mean and three replicates, 5 µM): 108.41 and 98.6437 and 106.057
remaining activity at 5 µM (cUSP47CD; FT671 5 μM, Ub-AMC 35 μM, mean and three replicates, read-out: Enzyme activity cUSP47CD+FT671 relative to cUSP47CD without FT671 (=100)): 104%
inhibition of cUSP47CD wild type by FT671 (cUSP47CD; FT671 5 μM, Ub-AMC, Fig. 5d): no inhibition
inhibition of USP7 wild type by FT671 (hUSP7CD; FT671 5 μM, Ub-AMC, Fig. 5d): complete inhibition
change in activity of cUSP47CD^R309N with FT671 (cUSP47CD^R309N): no change in the activity
reduction in the activity of cUSP47CD^A416NA417H with FT671 (cUSP47CD^A416NA417H): ~40%
inhibition of cUSP47CD^R309NA416NA417H by FT671 (cUSP47CD^R309NA416NA417H): even more inhibition
reduction in the activity of hUSP7CD^N460AH461A in the presence of FT671 (hUSP7CD^N460AH461A): ~ 80%
potency and specificity for USP7 (USP7): high potency and specificity only for USP7

CCc1c(-c2ccc(C(=O)NC)nc2)cnc(N)c1-c1ccc(O)cc1 [GNE6776]
potency and specificity for USP7 (USP7): high potency and specificity only for USP7

CS(=O)(=O)c1ccc(NC(=O)c2cc(C#N)c(Sc3c(Cl)cncc3Cl)s2)cc1 [P50429]
IC50 (cUSP47CD; Ub-AMC, USP47 50 nM, 10 min at 25 °C, triplicate, mean ± SD): 1.4 ± 0.2 µM
Residual enzymatic activity, cUSP47CD_IC50(p50429) (cUSP47CD; inhibitor concentration 0.0244141, three replicates, 0.0244141 µM): 98.3931 and 102.68
remaining activity at 0.0244141 µM (cUSP47CD; inhibitor concentration 0.0244141, three replicates, read-out: Residual enzymatic activity, cUSP47CD_IC50(p50429)): 106%
Residual enzymatic activity, cUSP47CD_IC50(p50429) (cUSP47CD; inhibitor concentration 0.0488281, three replicates, 0.0488281 µM): 94.8604 and 95.1269
remaining activity at 0.0488281 µM (cUSP47CD; inhibitor concentration 0.0488281, three replicates, read-out: Residual enzymatic activity, cUSP47CD_IC50(p50429)): 100%
Residual enzymatic activity, cUSP47CD_IC50(p50429) (cUSP47CD; inhibitor concentration 0.0976562, three replicates, 0.0976562 µM): 90.0141 and 90.4933
remaining activity at 0.0976562 µM (cUSP47CD; inhibitor concentration 0.0976562, three replicates, read-out: Residual enzymatic activity, cUSP47CD_IC50(p50429)): 86.3%
Residual enzymatic activity, cUSP47CD_IC50(p50429) (cUSP47CD; inhibitor concentration 0.195312, three replicates, 0.195312 µM): 70.9575 and 84.4737
remaining activity at 0.195312 µM (cUSP47CD; inhibitor concentration 0.195312, three replicates, read-out: Residual enzymatic activity, cUSP47CD_IC50(p50429)): 90.3%
Residual enzymatic activity, cUSP47CD_IC50(p50429) (cUSP47CD; inhibitor concentration 0.390625, three replicates, 0.390625 µM): 71.1433 and 81.3617
remaining activity at 0.390625 µM (cUSP47CD; inhibitor concentration 0.390625, three replicates, read-out: Residual enzymatic activity, cUSP47CD_IC50(p50429)): 83.2%
Residual enzymatic activity, cUSP47CD_IC50(p50429) (cUSP47CD; inhibitor concentration 0.78125, three replicates, 0.78125 µM): 64.5756 and 70.9586
remaining activity at 0.78125 µM (cUSP47CD; inhibitor concentration 0.78125, three replicates, read-out: Residual enzymatic activity, cUSP47CD_IC50(p50429)): 71.1%
Residual enzymatic activity, cUSP47CD_IC50(p50429) (cUSP47CD; inhibitor concentration 1.5625, three replicates, 1.5625 µM): 47.6458 and 50.9074
remaining activity at 1.5625 µM (cUSP47CD; inhibitor concentration 1.5625, three replicates, read-out: Residual enzymatic activity, cUSP47CD_IC50(p50429)): 52.3%
Residual enzymatic activity, cUSP47CD_IC50(p50429) (cUSP47CD; inhibitor concentration 3.125, three replicates, 3.125 µM): 23.3806 and 22.8255
remaining activity at 3.125 µM (cUSP47CD; inhibitor concentration 3.125, three replicates, read-out: Residual enzymatic activity, cUSP47CD_IC50(p50429)): 24.7%
Residual enzymatic activity, cUSP47CD_IC50(p50429) (cUSP47CD; inhibitor concentration 6.25, three replicates, 6.25 µM): 13.3082 and 13.4812
remaining activity at 6.25 µM (cUSP47CD; inhibitor concentration 6.25, three replicates, read-out: Residual enzymatic activity, cUSP47CD_IC50(p50429)): 23%
Residual enzymatic activity, cUSP47CD_IC50(p50429) (cUSP47CD; inhibitor concentration 12.5, three replicates, 12.5 µM): 11.6652 and 7.474
remaining activity at 12.5 µM (cUSP47CD; inhibitor concentration 12.5, three replicates, read-out: Residual enzymatic activity, cUSP47CD_IC50(p50429)): 11.3%
Residual enzymatic activity, cUSP47CD_IC50(p50429) (cUSP47CD; inhibitor concentration 25, three replicates, 25 µM): 6.001 and 6.389
remaining activity at 25 µM (cUSP47CD; inhibitor concentration 25, three replicates, read-out: Residual enzymatic activity, cUSP47CD_IC50(p50429)): 7.06%
Residual enzymatic activity, cUSP47CD_IC50(p50429) (cUSP47CD; inhibitor concentration 50 (0–50 μM series), three replicates, 50 µM): 4.2047 and -1.497 and -1.461
IC50 (hUSP7CD): 5.3 ± 1 µM
DUB activity on K48-linked ubiquitin chains (Flag-USP7): inhibited the DUB activity

C=C1C(=O)O[C@H]2[C@H]1CC/C(C)=C/CC[C@@]1(C)O[C@@H]21 [Parthenolide]
inhibition of USP7 (USP7): can also inhibit both DUBs
inhibition of USP47 (USP47): can also inhibit both DUBs

C[C@H](CC(=O)N1CCC(O)(Cn2cnc3cc(NC(=O)CCN4CCN(C)CC4)ccc3c2=O)CC1)c1ccccc1 [XL188]
potency and specificity for USP7 (USP7): high potency and specificity only for USP7

USP7i-2: USP7 siRNA #2, 5′-ACCCUUGGACAAUAUUCCU-3′ (chemistry not given here)
relative expression level of USP7 (Q-PCR) (HCT116 (p53+/+) cells): 0.5662
relative expression level of USP47 (Q-PCR) (HCT116 (p53+/+) cells): 0.9671

USP47i-1: USP47 siRNA #1, 5′-AAGCTACTCCTACTCATCTATTT-3′ (chemistry not given here)
relative expression level of USP7 (Q-PCR) (HCT116 (p53+/+) cells): 0.6273
relative expression level of USP47 (Q-PCR) (HCT116 (p53+/+) cells): 0.3385

USP47i-2: USP47 siRNA #2, 5′-TGAAAAGGGATGTGCAAAA-3′ (chemistry not given here)
relative expression level of USP7 (Q-PCR) (HCT116 (p53+/+) cells): 0.9487
relative expression level of USP47 (Q-PCR) (HCT116 (p53+/+) cells): 0.486

B1: hUSP47CD-UBL12: human USP47 catalytic domain with the first two UBL domains, residues 1-794 (protein, UniProt Q96K76 1-794, looked up, fragment)
chain: MVPGEENQLVPKEDVFWRCRQNIFDEMKKKFLQIENAAEEPRVLCIIQDTTNSKTVNERITLNLPASTPVRKLFEDVANKVGYINGTFDLVWGNGINTADMAPLDHTSDKSLLDANFEPGKKNFLHLTDKDGEQPQILLEDSSAGEDSVHDRFIGPLPREGSGGSTSDYVSQSYSYSSILNKSETGYVGLVNQAMTCYLNSLLQTLFMTPEFRNALYKWEFEESEEDPVTSIPYQLQRLFVLLQTSKKRAIETTDVTRSFGWDSSEAWQQHDVQELCRVMFDALEQKWKQTEQADLINELYQGKLKDYVRCLECGYEGWRIDTYLDIPLVIRPYGSSQAFASVEEALHAFIQPEILDGPNQYFCERCKKKCDARKGLRFLHFPYLLTLQLKRFDFDYTTMHRIKLNDRMTFPEELDMSTFIDVEDEKSPQTESCTDSGAENEGSCHSDQMSNDFSNDDGVDEGICLETNSGTEKISKSGLEKNSLIYELFSVMVHSGSAAGGHYYACIKSFSDEQWYSFNDQHVSRITQEDIKKTHGGSSGSRGYYSSAFASSTNAYMLIYRLKDPARNAKFLEVDEYPEHIKNLVQKERELEEQEKRQREIERNTCKIKLFCLHPTKQVMMENKLEVHKDKTLKEAVEMAYKMMDLEEVIPLDCCRLVKYDEFHDYLERSYEGEEDTPMGLLLGGVKSTYMFDLLLETRKPDQVFQSYKPGEVMVKVHVVDLKAESVAAPITVRAYLNQTVTEFKQLISKAIHLPAETMRIVLERCYNDLRLLSVSSKTLKAEGFFRSNKVFV
modifications: catalytic domain with UBL1-2
Km (Ub-AMC): 3 ± 0.6 µM
kcat (Ub-AMC): 0.03 ± 0.002 s⁻¹
